Values after ≈ are worked out from the molar mass of the structure shown.
Key:
[1] = tested on: Citrobacter freundii ATCC 11606; assay: MIC in vitro; format: cell-based; conditions: ATCC11606, Dextrose agar, 37° C., 20 hours
Description: (§1) (G. L. Daquet and Y. A. Chabbect, Techniques en bacteriologie (Bacteriological techniques), vol. 3, Flammarion Medecine Sciences, Paris, 1972 and W. B. Hugo and A. D. Rusell, Pharmaceutical Microbiology, Blackwell Scientific Publications, London, (1977)). Antibiotic medium no. 1 (seed agar) (Oxoid CM 327) Tryptone-soya broth (Oxoid CM 129) Ringer's physiological solution 1/4 (oxoid BR 52) Dextrose agar (BBL-11165) 0.1 N NaOH "Citrobacter freundii" ATCC 11606 Each of the microorganisms is seeded by streaking in tubes of Antibiotic medium No. 1 (seed agar), which are then incubated at 37° C. for 20 hours. Using a culture loop, the cultures are then seeded in tryptone-soyabroth and incubated at 37° C. for 20 hours. The culture obtained is diluted to 1/4 with Ringer's physiological solution, so as to obtain a standardized suspension of 10^7 -10^9 cfu/ml for each organism. Starting from a solution of 1,000 μg/ml in 0.1 N NaOH, each product is diluted in Dextrose agar (previously melted and maintained at 50° C.), with successive dilutions so as to obtain the following concentrations: 64--32--16--8--4--2--1--0.5--0.25--0.125 μg of derivative/ml medium. For each product, the solution of each concentration is subsequently distributed into Petri dishes 10 cm in diameter, with 10 ml of medium per dish and the same number of dishes as microorganisms to be tested. As soon as the medium has cooled, the dishes are seeded with the inoculations using 0.4 ml of inoculation per dish. They are spread with a Driglasky loop and the supernatant is removed. The seeded dishes are incubated at 37° C. for 20 hours.

[2] = tested on: Klebsiella pneumoniae ATCC 10031; assay: MIC in vitro; format: cell-based; conditions: ATCC10031, Dextrose agar, 37° C., 20 hours
Description: as §1, with “"Klebsiella pneumoniae"” for “"Citrobacter freundii"”, “10031” for “11606”

[3] = tested on: Salmonella typhimurius AMES 98; assay: MIC in vitro; format: cell-based, Salmonella typhimurium; conditions: AMES98, Dextrose agar, 37° C., 20 hours
Description: (§2) (G. L. Daquet and Y. A. Chabbect, Techniques en bacteriologie (Bacteriological techniques), vol. 3, Flammarion Medecine Sciences, Paris, 1972 and W. B. Hugo and A. D. Rusell, Pharmaceutical Microbiology, Blackwell Scientific Publications, London, (1977)).
(§3) Antibiotic medium no. 1 (seed agar) (Oxoid CM 327)
(§4) Tryptone-soya broth (Oxoid CM 129)
(§5) Ringer's physiological solution 1/4 (oxoid BR 52) Dextrose agar (BBL-11165) 0.1 N NaOH
"Salmonella typhimurium" AMES 98
(§6) Each of the microorganisms is seeded by streaking in tubes of Antibiotic medium No. 1 (seed agar), which are then incubated at 37° C. for 20 hours. Using a culture loop, the cultures are then seeded in tryptone-soyabroth and incubated at 37° C. for 20 hours. The culture obtained is diluted to 1/4 with Ringer's physiological solution, so as to obtain a standardized suspension of 10^7 -10^9 cfu/ml for each organism.
(§7) Starting from a solution of 1,000 μg/ml in 0.1 N NaOH, each product is diluted in Dextrose agar (previously melted and maintained at 50° C.), with successive dilutions so as to obtain the following concentrations: 64--32--16--8--4--2--1--0.5--0.25--0.125 μg of derivative/ml medium.
(§8) For each product, the solution of each concentration is subsequently distributed into Petri dishes 10 cm in diameter, with 10 ml of medium per dish and the same number of dishes as microorganisms to be tested.
(§9) As soon as the medium has cooled, the dishes are seeded with the inoculations using 0.4 ml of inoculation per dish. They are spread with a Driglasky loop and the supernatant is removed. The seeded dishes are incubated at 37° C. for 20 hours.

[4] = tested on: Salmonella typhimurius AMES 100; assay: MIC in vitro; format: cell-based, Salmonella typhimurium; conditions: AMES100, Dextrose agar, 37° C., 20 hours
Description: as §2, §3, §4, §5
"Salmonella typhimurium" AMES 100
as §6, §7, §8, §9

[5] = tested on: enterobacteriaceae (Pseudomonas aeruginosa); assay: in vitro antimicrobial activity compared to pipemidic acid; format: cell-based
Description: as §2, §3, §4, §5, §6, §7, §8, §9

[6] = tested on: gram-positive cocci; assay: as above; format: cell-based
Description: as §2, §3, §4, §5, §6, §7, §8, §9

Row | Compound | MIC [1] [µg/mL] | MIC [2] [µg/mL] | MIC [3] [µg/mL] | MIC [4] [µg/mL] | "in vitro" activity compared to pipemidic acid [5] | "in vitro" activity compared to pipemidic acid [6]
1 | CCn1cc(C(=O)O)c(=O)c2ccc(-n3cccc3)cc21 [Example 1, 7-(1-pyrrolyl)-1-ethyl-1,4-dihydro-4-oxo-3-quinolinecarboxylic acid] | 16 (≈ 56.7 µM) | 1 (≈ 3.54 µM) | 0.5 (≈ 1.77 µM) | 4 (≈ 14.2 µM) | greater than that of pipemidic acid | greater than that of pipemidic acid
2 | CCn1cc(C(=O)O)c(=O)c2cc(F)c(-n3cccc3)cc21 [Example 2, 6-fluoro-7-(1-pyrrolyl)-1-ethyl-1,4-dihydro-4-oxo-3-quinolinecarboxylic acid] | 8 (≈ 26.6 µM) | 0.5 (≈ 1.67 µM) | < 0.125 | 0.5 (≈ 1.67 µM) | greater than that of pipemidic acid | greater than that of pipemidic acid
3 | CCn1cc(C(=O)O)c(=O)c2ccc(-n3cccc3)nc21 [Example 3, 1-ethyl-1,4-dihydro-4-oxo-7-(1-pyrrolyl)-1,8-naphthyridine-3-carboxylic acid] | 32 (≈ 113 µM) | 4 (≈ 14.1 µM) | 0.5 (≈ 1.76 µM) | 8 (≈ 28.2 µM) | – | a greater activity
4 | CCn1cc(C(=O)O)c(=O)c2cc(F)c(-n3cccc3)nc21 [Example 4, 1-ethyl-1,4-dihydro-4-oxo-6-fluoro-7-(1-pyrrolyl)-1,8-naphthyridine-3-carboxylic acid] | 4 (≈ 13.3 µM) | 1 (≈ 3.32 µM) | 0.12 (≈ 0.398 µM) | 0.5 (≈ 1.66 µM) | greater than that of pipemidic acid | greater than that of pipemidic acid
5 | CCn1cc(C(=O)O)c(=O)c2cnc(N3CCNCC3)nc21 [Pipemidic acid, reference compound] | 4 (≈ 13.2 µM) | 2 (≈ 6.59 µM) | 4 (≈ 13.2 µM) | 8 (≈ 26.4 µM) | – | –

— US4552882A, “7-(1-Pyrrolyl) derivatives of 1-ethyl-1,4-dihydro-4-oxoquinoline-3-carboxylic acids and 1-ethyl-1,4-dihydro-4-oxo-1,8-naphthyridine-3-carboxylic acids and their use as antimicrobial agents” (Provesan, SA, priority 1983, dated 1985)
